This note sets out measurements from patent US10125134B2 (Mirati Therapeutics, Inc., priority 2016, dated 2018).

Like-named read-outs stand apart in the source and are kept apart here. Some results are limits rather than exact numbers.

In test [1] the test system is NCI-H358 cells (express KRas G12C), Phospho-ERK. The experiment in a line: Cellular inhibition of KRas G12C: Phospho-ERK in NCI-H358 cells. Format: cell-based. As to conditions: Homo sapiens, pERK(Thr202/Tyr204) normalized with GAPDH, NCI-H358 cells, 3 hours, read-out: IC50. The method in brief:
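IC50 derived by 4-parameter fit of GAPDH-normalized pERK(Thr202/Tyr204) signal, as percent of DMSO control. Signal came from in-cell immunodetection with infrared secondaries after 3 h compound exposure of KRas G12C NCI-H358 cells at 0.5% DMSO.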

The target in another test is KRas G12C (Homo sapiens, UniProt P01116, C118S/C51S/C80L/G12C). The experiment in a line: KRas G12C Modification Assay (LCMS detection of covalent adduct). The class given is binding. The following applies: normalized percent of control; tested at 5 μM concentration for 3 hours. The method in brief: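 Covalent modification was read by reverse-phase LC/MS of intact protein after compound exposure, each reaction stopped at its time point with 25 mM acetic acid. Unmodified-protein signal, taken as percent of total, was normalised to untreated protein and reported as POC.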

As usually defined, the IC50 is the concentration that gives 50% inhibition.

Regarding `C=CC(=O)N1CCN(c2nc(O[C@H](C)CN(C)C)nc3c2CCN(c2c(C)ccc(F)c2O)C3)CC1` [Example 87, (R)-1-(4-(2-((1-(dimethylamino)propan-2-yl)oxy)-7-(3-fluoro-2-hydroxy-6-methylphenyl)-5,6,7,8-tetrahydropyrido[3,4-d]pyrimidin-4-yl)piperazin-1-yl)prop-2-en-1-one], the IC50 in test [1] is above 1000 nM. The POC result on KRas G12C is recorded as “A (“A”≤25% POC)”.

Consider `C=CC(=O)N1CCN(c2nc(OCCN3CCCC[C@@H]3C)nc3c2CCN(c2cc(O)cc4ccccc24)C3)CC1` [Example 88, (S)-1-(4-(7-(3-hydroxynaphthalen-1-yl)-2-(2-(2-methylpiperidin-1-yl)ethoxy)-5,6,7,8-tetrahydropyrido[3,4-d]pyrimidin-4-yl)piperazin-1-yl)prop-2-en-1-one], for which, in test [1] (NCI-H358, 3 h), the IC50 was in the range of 0.1 to 1000 nM. The POC result on KRas G12C is “C (“C”>50% POC)”.

With `C=CC(=O)N1CCN(c2nc(OCC3CCN(C)C3)nc3c2CCN(c2cc(O)cc4ccccc24)C3)CC1` (stereo not drawn) [Example 89, 1-(4-(7-(3-hydroxynaphthalen-1-yl)-2-((l-methylpyrrolidin-3-yl)methoxy)-5,6,7,8-tetrahydropyrido[3,4-d]pyrimidin-4-yl)piperazin-1-yl)prop-2-en-1-one], the IC50 in test [1] (NCI-H358, 3 h) fell in the range of 0.1 to 1000 nM. The POC result at KRas G12C is “C (“C”>50% POC)”.

With `C=CC(=O)N1CCN(c2nc(OCCCN3CCOCC3)nc3c2CCN(c2cc(O)ccc2OC(F)(F)F)C3)CC1` [Example 90, 1-(4-(7-(5-hydroxy-2-(trifluoromethoxy)phenyl)-2-(3-morpholinopropoxy)-5,6,7,8-tetrahydropyrido[3,4-d]pyrimidin-4-yl)piperazin-1-yl)prop-2-en-1-one], in test [1], the IC50 fell in the range of 0.1 to 1000 nM. Moreover, the POC result on KRas G12C is “C (“C”>50% POC)”.

As for `C=CC(=O)N1CCN(c2nc(O[C@H](C)CN(C)C)nc3c2CCN(c2cc(O)cc(OC(F)(F)F)c2)C3)CC1` [Example 91, (R)-1-(4-(2-((1-(dimethylamino)propan-2-yl)oxy)-7-(3-hydroxy-5-(trifluoromethoxy)phenyl)-5,6,7,8-tetrahydropyrido[3,4-d]pyrimidin-4-yl)piperazin-1-yl)prop-2-en-1-one], the IC50 in test [1] is above 1000 nM. The POC entry at KRas G12C is on record as “A (“A”≤25% POC)”.

Regarding `C=CC(=O)N1CCN(c2nc(OCCN3CCC(C)CC3)nc3c2CCN(c2cc(O)cc4ccccc24)C3)CC1` [Example 92, 1-(4-(7-(3-hydroxynaphthalen-1-yl)-2-(2-(4-methylpiperidin-1-yl)ethoxy)-5,6,7,8-tetrahydropyrido[3,4-d]pyrimidin-4-yl)piperazin-1-yl)prop-2-en-1-one], the IC50 in test [1] (NCI-H358, 3 h) lay in the range of 0.1 to 1000 nM. For the same compound, the POC result at KRas G12C was “C (“C”>50% POC)”.

With `C=CC(=O)N1CCN(c2nc(OC(C)CCN3CCOCC3)nc3c2CCN(c2cc(O)cc4ccccc24)C3)CC1` (centres unmarked) [Example 93, 1-(4-(7-(3-hydroxynaphthalen-1-yl)-2-((4-morpholinobutan-2-yl)oxy)-5,6,7,8-tetrahydropyrido[3,4-d]pyrimidin-4-yl)piperazin-1-yl)prop-2-en-1-one], the half-inhibitory concentration (IC50) in test [1] (NCI-H358, 3 h) was above 1000 nM. Further, the POC entry on KRas G12C is on record as “C (“C”>50% POC)”.

Consider `C=CC(=O)N1CCN(c2nc(O[C@H](C)CN(C)C)nc3c2CCN(c2cc(O)ccc2OC)C3)CC1` [Example 94, (R)-1-(4-(2-((1-(dimethylamino)propan-2-yl)oxy)-7-(5-hydroxy-2-methoxyphenyl)-5,6,7,8-tetrahydropyrido[3,4-d]pyrimidin-4-yl)piperazin-1-yl)prop-2-en-1-one], for which the IC50 in test [1] is above 1000 nM. The POC entry at KRas G12C is reported as “A (“A”≤25% POC)”.

On to `C=CC(=O)N1CCN(c2nc(O[C@H](C)CN(C)C)nc3c2CCN(c2c(C)cccc2O)C3)CC1` [Example 95, (R)-1-(4-(2-((1-(dimethylamino)propan-2-yl)oxy)-7-(2-hydroxy-6-methylphenyl)-5,6,7,8-tetrahydropyrido[3,4-d]pyrimidin-4-yl)piperazin-1-yl)prop-2-en-1-one], for which the IC50 in test [1] was above 1000 nM. Also, at KRas G12C, the POC entry is recorded as “A (“A”≤25% POC)”.

`C=CC(=O)N1CCN(c2nc(OCCCN3CCOCC3)nc3c2CCN(c2cc(O)ccc2OC(C)C)C3)CC1` [Example 96, 1-(4-(7-(5-hydroxy-2-isopropoxyphenyl)-2-(3-morpholinopropoxy)-5,6,7,8-tetrahydropyrido[3,4-d]pyrimidin-4-yl)piperazin-1-yl)prop-2-en-1-one]: in test [1], the IC50 is above 1000 nM. Also, the POC entry on KRas G12C was “A (“A”≤25% POC)”.

In the case of `C=CC(=O)N1CCN(c2nc(OCCN3CCCC[C@H]3C)nc3c2CCN(c2cc(O)cc4ccccc24)C3)CC1` [Example 97, (R)-1-(4-(7-(3-hydroxynaphthalen-1-yl)-2-(2-(2-methylpiperidin-1-yl)ethoxy)-5,6,7,8-tetrahydropyrido[3,4-d]pyrimidin-4-yl)piperazin-1-yl)prop-2-en-1-one], the IC50 in test [1] (NCI-H358, 3 h) was 0.1 to 1000 nM. The POC result at KRas G12C is listed as “C (“C”>50% POC)”.

With `C=CC(=O)N1CCN(c2nc(OCCN3CCC[C@H](OC)C3)nc3c2CCN(c2cc(O)cc4ccccc24)C3)CC1` [Example 98, (S)-1-(4-(7-(3-hydroxynaphthalen-1-yl)-2-(2-(3-methoxypiperidin-1-yl)ethoxy)-5,6,7,8-tetrahydropyrido[3,4-d]pyrimidin-4-yl)piperazin-1-yl)prop-2-en-1-one], the IC50 in test [1] (NCI-H358, 3 h) is above 1000 nM. The POC result at KRas G12C was “C (“C”>50% POC)”.

Regarding `C=CC(=O)N1CCN(c2nc(OCCN3CCC[C@@H](OC)C3)nc3c2CCN(c2cc(O)cc4ccccc24)C3)CC1` [Example 99, (R)-1-(4-(7-(3-hydroxynaphthalen-1-yl)-2-(2-(3-methoxypiperidin-1-yl)ethoxy)-5,6,7,8-tetrahydropyrido[3,4-d]pyrimidin-4-yl)piperazin-1-yl)prop-2-en-1-one], the IC50 in test [1] (NCI-H358, 3 h) is above 1000 nM. On KRas G12C, the POC result is “C (“C”>50% POC)”.

`C=CC(=O)N1CCN(c2nc(OC3CCN(C4CC4)CC3)nc3c2CCN(c2cc(O)cc4ccccc24)C3)CC1` [Example 100, 1-(4-(2-((1-cyclopropylpiperidin-4-yl)oxy)-7-(3-hydroxynaphthalen-1-yl)-5,6,7,8-tetrahydropyrido[3,4-d]pyrimidin-4-yl)piperazin-1-yl)prop-2-en-1-one]: the IC50 in test [1] (NCI-H358, 3 h) is above 1000 nM. In addition, at KRas G12C, the POC entry is reported as “C (“C”>50% POC)”.

On to `C=CC(=O)N1CCN(c2nc(OCCCN3CCCOCC3)nc3c2CCN(c2cc(O)cc4ccccc24)C3)CC1` [Example 101, 1-(4-(2-(3-(1,4-oxazepan-4-yl)propoxy)-7-(3-hydroxynaphthalen-1-yl)-5,6,7,8-tetrahydropyrido[3,4-d]pyrimidin-4-yl)piperazin-1-yl)prop-2-en-1-one], for which the IC50 in test [1] (NCI-H358, 3 h) lay in the range of 0.1 to 1000 nM. Moreover, the POC result on KRas G12C was “C (“C”>50% POC)”.

For the compound `C=CC(=O)N1CCN(c2nc(OCCN(CC)CC)nc3c2CCN(c2cc(O)cc4ccccc24)C3)CC1` [Example 102], the IC50 in test [1] (NCI-H358, 3 h) lay within 0.1 to 1000 nM. At KRas G12C, the POC entry was “C (“C”>50% POC)”.

On to `C=CC(=O)N1CCN(c2nc(OCC3CCN(CCOC)C3)nc3c2CCN(c2cc(O)cc4ccccc24)C3)CC1` (centres unmarked) [Example 103, 1-(4-(7-(3-hydroxynaphthalen-1-yl)-2-((1-(2-methoxyethyl)pyrrolidin-3-yl)methoxy)-5,6,7,8-tetrahydropyrido[3,4-d]pyrimidin-4-yl)piperazin-1-yl)prop-2-en-1-one], for which the IC50 in test [1] (NCI-H358, 3 h) was 0.1 to 1000 nM. On KRas G12C, the POC entry is listed as “C (“C”>50% POC)”.

`C=CC(=O)N1CCN(c2nc(OCCCN3C[C@@H]4C[C@H]3CO4)nc3c2CCN(c2cc(O)cc4ccccc24)C3)CC1` [Example 104, 1-(4-(2-(3-((1 S,4S)-2-oxa-5-azabicyclo[2.2.1]heptan-5-yl)propoxy)-7-(3-hydroxynaphthalen-1-yl)-5,6,7,8-tetrahydropyrido[3,4-d]pyrimidin-4-yl)piperazin-1-yl)prop-2-en-1-one]: the IC50 in test [1] (NCI-H358, 3 h) fell in the range of 0.1 to 1000 nM. On KRas G12C, the POC result was “C (“C”>50% POC)”.

Regarding `C=CC(=O)N1CCN(c2nc(OCCCN3CCOCC3)nc3c2CCN(c2cc(O)ccc2C)C3)CC1` [Example 105, 1-(4-(7-(5-hydroxy-2-methylphenyl)-2-(3-morpholinopropoxy)-5,6,7,8-tetrahydropyrido[3,4-d]pyrimidin-4-yl)piperazin-1-yl)prop-2-en-1-one], the IC50 in test [1] is above 1000 nM. Also, at KRas G12C, the POC result is on record as “B (“B”>25% POC−≤50% POC)”.

As to `C=CC(=O)N1CCN(c2nc(OCCCN3CCOCC3)nc3c2CCN(c2ccc(O)cc2OC(F)(F)F)C3)CC1` [Example 106, 1-(4-(7-(4-hydroxy-2-(trifluoromethoxy)phenyl)-2-(3-morpholinopropoxy)-5,6,7,8-tetrahydropyrido[3,4-d]pyrimidin-4-yl)piperazin-1-yl)prop-2-en-1-one], the IC50 in test [1] was above 1000 nM. The POC entry at KRas G12C was “A (“A”≤25% POC)”.

Take `C=CC(=O)N1CCN(c2nc(OCCN(C)CCOC)nc3c2CCN(c2cc(O)cc4ccccc24)C3)CC1` [Example 107, 1-(4-(7-(3-hydroxynaphthalen-1-yl)-2-(2-((2-methoxyethyl)(methyl)amino)ethoxy)-5,6,7,8-tetrahydropyrido[3,4-d]pyrimidin-4-yl)piperazin-1-yl)prop-2-en-1-one]: the IC50 in test [1] (NCI-H358, 3 h) was above 1000 nM. The POC entry on KRas G12C is recorded as “C (“C”>50% POC)”.

With `C=CC(=O)N1CCN(c2nc(OCCN3CCC(OC)CC3)nc3c2CCN(c2cc(O)cc4ccccc24)C3)CC1` [Example 108, 1-(4-(7-(3-hydroxynaphthalen-1-yl)-2-(2-(4-methoxypiperidin-1-yl)ethoxy)-5,6,7,8-tetrahydropyrido[3,4-d]pyrimidin-4-yl)piperazin-1-yl)prop-2-en-1-one], the IC50 in test [1] (NCI-H358, 3 h) lay within 0.1 to 1000 nM. Moreover, the POC entry on KRas G12C is “C (“C”>50% POC)”.
